Our source for the Activity values is ChEMBL document CHEMBL1153614, “Synthesis, spectral characterization, in-vitro microbiological evaluation and cytotoxic activities of novel macrocyclic bis hydrazone” (Eur J Med Chem, 2009).

One data set has as its system Candida albicans. The data set is described as follows: Antifungal activity against Candida albicans at 10 ug/ml for 48 hrs by disc diffusion method. Type of data set: functional.
In a further data set the test system is Penicillium. The data set is described as follows: Antifungal activity against Penicillium at 10 ug/ml for 48 hrs by disc diffusion method. Type of data set: functional. (A growth-free zone around the sample is the usual read-out of agar diffusion tests.)
The subject of the next data set is Aspergillus niger. The data set is described as follows: Antifungal activity against Aspergillus niger at 10 ug/ml for 48 hrs by disc diffusion method. Type of data set: functional.
Another data set has as its system Bacillus subtilis. The data set is described as follows: Antibacterial activity against Bacillus subtilis at 10 ug/ml for 24 hrs by disc diffusion method. The data set is classed as functional.
The test system of the next data set is Staphylococcus aureus. The data set is described as follows: Antibacterial activity against Staphylococcus aureus at 10 ug/ml for 24 hrs by disc diffusion method. Type of data set: functional.
The subject of another data set is Bacillus cereus. The data set is described as follows: Antibacterial activity against Bacillus cereus at 10 ug/ml for 24 hrs by disc diffusion method. Type of data set: functional.
A further data set deals with Pseudomonas aeruginosa. The data set is described as follows: Antibacterial activity against Pseudomonas aeruginosa at 10 ug/ml for 24 hrs by disc diffusion method. Type of data set: functional.
The test system of the next data set is Artemia salina. The data set is described as follows: Toxicity against Artemia salina. The data set is classed as organism-based. Conditions: in vivo.
The next data set deals with Escherichia coli. Briefly: Antibacterial activity against Escherichia coli at 10 ug/ml for 24 hrs by disc diffusion method. Type of data set: functional.
The subject of a further data set is Micrococcus. The data set is described as follows: Antibacterial activity against Micrococcus sp. at 10 ug/ml for 24 hrs by disc diffusion method. Type of data set: functional.
The next data set concerns Shigella dysenteriae. The data set is described as follows: Antibacterial activity against Shigella dysenteriae at 10 ug/ml for 24 hrs by disc diffusion method. The data set is classed as functional.

With `OC(Cn1cncn1)(Cn1cncn1)c1ccc(F)cc1F` [FLUCONAZOLE], the Activity with Candida albicans, in the data set with Penicillium and in the data set on Aspergillus niger was 24 mm throughout.

`Cc1cc2c(O)c(c1)/C=N\NC(=O)c1ccc(cc1)C(=O)N/N=C\c1cc(O)c(cc1C)/C=N\NC(=O)c1ccc(cc1)C(=O)NN=C2`: the Activity in the data set with Bacillus subtilis is on record as 20 mm; with Staphylococcus aureus, 10 mm; with Bacillus cereus, 16 mm; in the data set with Pseudomonas aeruginosa it was 14 mm; in the data set with Artemia salina it was “Non-toxic”; in the data set with Escherichia coli, 16 mm. For the same molecule, the Activity in the data set on Micrococcus is recorded as 14 mm; in the data set with Candida albicans it was 16 mm; in the data set on Penicillium it was 20 mm; with Shigella dysenteriae it was 16 mm; in the data set with Aspergillus niger, 22 mm.

In the case of GENTAMICIN, the Activity in the data set with Bacillus subtilis, with Staphylococcus aureus, with Bacillus cereus, in the data set with Pseudomonas aeruginosa, with Escherichia coli and in the data set with Micrococcus was 20 mm in each case. The Activity with Shigella dysenteriae was determined as 20 mm.
